Columns and labels:
[1] = test system: murine syngeneic lymphoma model A20; conditions: mouse, in vivo, po, 50 mg/kg
Procedure: (§1) KLN205) or three (CT26 and MC38 study 1) or only one (MC38 study 2) different combination schedules were tested:
(§2) The oral application volume was 10 ml/kg and the intravenous application volume 5 ml/kg. The time interval between two applications per day was 6-7 h. The tumor size and the body weight were determined three times weekly. Changes in the body weight were a measure of treatment-related toxicity (>10%=critical, stop of treatment until recovery, >20%=toxic, termination). The tumor volume was detected by means of an electronic caliper gauge [0.5×length in mm×(width in mm)^2]. Animals for which the tumor volume exceeded 2000 mm^3 (or for which the mean tumor volume of the group exceeds 2000 mm^3) were euthanized. In vivo anti-tumor efficacy is presented as T/C ratio (Treatment/Control) calculated with tumor volumes at day of control group termination by the formula [(tumor volume of treatment group at day x)−(tumor volume of treatment group at day before first treatment)]/[(tumor volume control group at day x)−(tumor volume of control group at day before first treatment)]. […] Statistical analysis was assessed using SigmaStat software. A one-way analysis of variance was performed and differences to the control were compared by a pair-wise comparison procedure (Dunn's method).

[2] = test system: murine syngeneic lung carcinoma model KLN205; conditions: mouse, in vivo
Procedure: as §1, §2

[3] = test system: murine syngeneic colon carcinoma model CT26; conditions: mouse, in vivo, po, 50 mg/kg
Procedure: as §1, §2

For `C[C@@H]1COCCN1c1cc(-c2ccnn2C)c2ccnc(-c3ccn[nH]3)c2n1` [Compound A, 2-[(3R)-3-methylmorpholin-4-yl]-4-(1-methyl-1H-pyrazol-5-yl)-8-(1H-pyrazol-5-yl)-1,7-naphthyridine], the “Max. weight loss (%)” value [1] was −2%, the “Max. weight loss (%)” value [2] was −19 (d9) % and the “body weight loss (in words)” value [2] was “critical body weight loss”. For the same molecule, the “Max. weight loss (%)” value [3] was −1%.

Source: patent US11690911B2, “Combination of ATR kinase inhibitors and PD-1/PD-L1 inhibitors” (Bayer Pharma Aktiengesellschaft, priority 2017, dated 2023)
